According to patent US7910597B2, “Substituted quinazolines” (Shire LLC, priority 2006, dated 2011):
Counter-ions that a name gives are not always drawn. Like-named read-outs stand apart in the source and are kept apart here. Values belong to the compound of their own block, whether it stands above or below them.

Columns and labels:
[1] = In vitro metabolic stability in dog hepatocytes; type: in vitro ADME
Description: (§1) This comparatively longer half-life for 3,3 dimethyl anagrelide observed in the dog was mirrored in an in vitro metabolic stability study in which it was clearly much more metabolically stable than anagrelide (see table below). Hepatic metabolism is known to be the principal mechanism of clearance of anagrelide in both animals and in man.

[2] = test system: megakaryocytopoiesis (human cell-line); assay: In vitro anti-megakaryocytic activity in a model of megakaryocytopoiesis (human cell-line); type: cell-based
Description: Assessment of the in vitro anti-megakaryocytic activity—and potentially therefore the platelet lowering capability—of the 3-substituted analogues of anagrelide was conducted using a well established model of megakaryocytopoiesis (Cohen-Solal et at, Thromb. Haemost. 1997, 78:37-41 and Cramer et al, Blood, 1997, 89:2336-46). It can be readily seen that with anagrelide the benefit ratio (therapeutic to adverse effects) was comparatively low at 0.024:1 (after accounting for the predominant exposure to the cardioactive metabolite in vivo).

[3] = test system: dog heart rate; assay: In vivo cardiovascular effects on dog heart rate
Description: (§2) A comparison of the in vivo cardiovascular effects of anagrelide, its active metabolite and a representative example of an improved analogue shown in the table below:—

[4] = In vitro metabolic stability in human hepatocytes; type: in vitro ADME
Description: as §1

[5] = Pharmacokinetics in the conscious dog model; type: in vivo; details: geometric mean ± % CV
Description: A comparison of the pharmacokinetic profile in the dog of anagrelide and a representative 3-substituted analogue is shown below:—
Comparative Pharmacokinetics of Anagrelide, its Resultant Active Metabolite and a Representative 3-Substituted Analogue Follow 1 mg/kg iv in the Conscious Dog Model

[6] = molecular target: human phosphodiesterase III (PDE III); assay: In vitro PDE III inhibition (human enzyme); type: biochemical
[7] = Solubility in test media, saturated solutions, HPLC; type: physicochemical; details: ca. 20° C.; for solubility at 20 min: thermodynamic from solid
Description: Solubility studies were carried out on a number of anagrelide derivatives according to the present invention in various test media. The test media were; • a) singly distilled water (pH 5.0)—note no attempt was made to remove dissolved CO2. • b) 50 mM ammonium formate (pH 7.9) • c) 0.1 M hydrochloric acid (pH 0.6)
Calibration plots of HPLC peak area vs. concentration were obtained in MeOH or MeOH/DMSO over the range 1000-1 μg/ml for each substance at a temperature 20-22° C. The HPLC method used a reverse phase C18 column with a water (0.6% formic acid) and acetonitrile gradient. For the solubility studies, saturated solutions were prepared by dissolving in the desired medium with the aid of an ultrasonic bath for 20 minutes and the excess solid removed by centrifugation. The concentration of the substance in the supernatant liquid was determined from the measured peak area.

[8] = test system: megakaryocytopoiesis (human cell-line); details: background; cited from earlier work
[9] = cited from earlier work
[10] = test system: human phosphodiesterase III (PDE III); details: background, cited from earlier work; for IC50: read-out: IC50 as PDE III inhibitor
[11] = test system: heart rate; assay: In vivo cardiovascular effects on dog heart rate; details: in vivo
Description: as §2

[12] = test system: erythroid or myelomonocytic differentiation; details: stimulated by erythropoietin or granulocyte-macrophage colony-stimulating factor; cited from earlier work
[13] = Example 1 table, read-out: IC50 for anti-megakaryocytic (platelet lowering) activity
[14] = read-out: In vitro IC50 for anti-megakaryocytic effects (human cell-line)
[15] = Example 1 table, read-out: IC50 for PDE III inhibition (cardiovascular effects)
[16] = read-out: In vitro IC50 for PDE III inhibition (human enzyme)

SMILES: Br.CC1(C)C(=O)NC2=Nc3ccc(Cl)c(Cl)c3CN21 [3,3-Dimethylanagrelide hydrobromide]
Solubility in hydrochloric acid (0.1M, pH 0.6) ([7]; 0.1M HCl, pH 0.6): 215 μg mL^−1 | Solubility in ammonium formate (50 mM, pH 7.9) ([7]; ammonium formate 50 mM, pH 7.9): 4 μg mL^−1 | Solubility in water (pH 5.0) ([7]; singly distilled water, pH 5.0): 20 μg mL^−1

SMILES: CC1(C)C(=O)[N-]C2=Nc3ccc(Cl)c(Cl)c3CN21.[Na+] [3,3-Dimethylanagrelide sodium salt]
Solubility in hydrochloric acid (0.1M, pH 0.6) ([7]; 0.1M HCl, pH 0.6): 212 μg mL^−1 | Solubility in ammonium formate (50 mM, pH 7.9) ([7]; ammonium formate 50 mM, pH 7.9): 6 μg mL^−1 | Solubility in water (pH 5.0) ([7]; singly distilled water, pH 5.0): 409 μg mL^−1

SMILES: Br.O=C1NC2=Nc3ccc(Cl)c(Cl)c3CN2C12CC2 [3,3-spiro-Cyclopropyl-anagrelide hydrobromide]
Solubility in hydrochloric acid (0.1M, pH 0.6) ([7]; 0.1M HCl, pH 0.6): 35 μg mL^−1 | Solubility in ammonium formate (50 mM, pH 7.9) ([7]; ammonium formate 50 mM, pH 7.9): 1 μg mL^−1 | Solubility in water (pH 5.0) ([7]; singly distilled water, pH 5.0): 2 μg mL^−1

SMILES: C=c1c(=O)[nH]c2n1Cc1c(ccc(Cl)c1Cl)N=2 [3-Methyleneanagrelide, 3-methyleneanagrelide]
Solubility in hydrochloric acid (0.1M, pH 0.6) ([7]; 0.1M HCl, pH 0.6): 43 μg mL^−1 | Solubility in ammonium formate (50 mM, pH 7.9) ([7]; ammonium formate 50 mM, pH 7.9): 5 μg mL^−1 | Solubility in water (pH 5.0) ([7]; singly distilled water, pH 5.0): 9 μg mL^−1

SMILES: C[C@@H]1C(=O)NC2=Nc3ccc(Cl)c(Cl)c3CN21 [(R)-3-methyl anagrelide]
Anti-megakaryocytic activity (in words) [2]: good anti-megakaryocytic activity | PDE III inhibitory activity (in words) [6]: significantly reduced PDE III inhibition relative to 3-OH anagrelide

SMILES: C[C@H]1C(=O)NC2=Nc3ccc(Cl)c(Cl)c3CN21 [(S)-3-methyl anagrelide]
Anti-megakaryocytic activity (in words) [2]: good anti-megakaryocytic activity | PDE III inhibitory activity (in words) [6]: significantly reduced PDE III inhibition relative to 3-OH anagrelide

SMILES: O=C1CN2Cc3c(ccc(Cl)c3Cl)N=C2N1 [Anagrelide hydrochloride, 6,7-dichloro-1,5-dihydroimidazo[2,1-b]-quinazolin-2(3H)-one hydrochloride monohydrate, reference compound]
solubility at 20 min ([7]; 50 mM ammonium formate, aqueous buffer, ammonium formate 50 mM, pH 7.9, read-out: Solubility in ammonium formate (50 mM, pH 7.9)): 0.01 mg/mL | solubility at 20 min ([7]; 0.1 M hydrochloric acid, simulated gastric fluid, 0.1M HCl, pH 0.6, read-out: Solubility in hydrochloric acid (0.1M, pH 0.6)): 0.169 mg/mL | solubility at 20 min ([7]; singly distilled water, pH 5.0, read-out: Solubility in water (pH 5.0)): 0.011 mg/mL

SMILES: O=C1CN2Cc3c(ccc(Cl)c3Cl)N=C2N1 [Anagrelide, 6,7-dichloro-1,5-dihydroimidazo[2,1-b]-quinazolin-2(3H)-one hydrochloride monohydrate]
half-life [1]: 1.25 h | IC50 ([2]; Homo sapiens, Platelet, Example 1 table, read-out: IC50 for anti-megakaryocytic (platelet lowering) activity): 0.027 µM | IC50 ([2]; Homo sapiens, read-out: In vitro IC50 for anti-megakaryocytic effects (human cell-line)): 0.026 µM | First pass effect ([9]; background): > 50% | IC50 [10]: ~0.029 µM | ED50 [11]: 0.986 mg/kg | In vivo ED20 for effects on dog heart rate [3]: 376 µg/kg | half-life [4]: 6.62 h | clearance ([5]; in vivo, after 1 mg/kg iv): 1.16 L/h/kg | Vd ([5]; in vivo, after 1 mg/kg iv, read-out: Vss): 1.011 ± 0.0038 L/kg | half-life ([5]; in vivo, intravenous, 1 mg/kg): 1.37 h | AUC(0-t) ([5]; in vivo, intravenous, 1 mg/kg, read-out: AUC(0-t)): 0.101 ± 0.015 µg·h/mL | Cmax ([5]; in vivo, intravenous, 1 mg/kg, read-out: Cmax): 0.0481 ± 0.021 µg/mL | Effect on erythroid or myelomonocytic differentiation (in words) [12]: does not affect erythroid or myelomonocytic differentiation | IC50 [6, 15]: 0.032 µM | IC50 [6, 16]: 0.029 µM

SMILES: Cc1[nH]c(=O)c(C#N)cc1-c1ccncc1 [milrinone]
IC50 [10]: 0.17 to 0.35 µM

Further lines, with some results ahead:

In vitro "half-life" in dog hepatocytes [1]: No apparent degradation | IC50 [2, 13]: 0.164 µM | IC50 [2, 14]: 0.166 µM | In vitro "half-life" in human hepatocytes [4]: 22.8 h | AUC(0-t) ([5]; 1 mg/kg): 1.903 ± 0.047 µg·h/mL | Cmax ([5]; 1 mg/kg): 0.167 ± 0.033 µg/mL | T1/2 ([5]; 1 mg/kg): 9.39 h | CL ([5]; after 1 mg/kg iv): 0.178 ± 0.0459 L/h/kg | Vss ([5]; after 1 mg/kg iv): 1.967 ± 0.024 L/kg | IC50 [6, 16]: 0.164 µM
SMILES: CC1(C)C(=O)NC2=Nc3ccc(Cl)c(Cl)c3CN21 [3,3 dimethyl anagrelide, 3,3-dimethylanagrelide]
In vivo ED20 for effects on dog heart rate [3]: 2,512 μg/kg | In vivo ED50 for effects on dog heart rate [3]: 3,557 ug/kg μg/kg | IC50 [6, 15]: 0.166 µM

Solubility in hydrochloric acid (0.1M, pH 0.6) ([7]; 0.1M HCl, pH 0.6): 28 μg mL^−1 | Solubility in ammonium formate (50 mM, pH 7.9) ([7]; ammonium formate 50 mM, pH 7.9): 1 μg mL^−1 | Solubility in water (pH 5.0) ([7]; singly distilled water, pH 5.0): 542 μg mL^−1
SMILES: O=C1[N-]C2=Nc3ccc(Cl)c(Cl)c3CN2C12CC2.[Na+] [3,3,Spiro-Cyclopropyl-anagrelide sodium salt]

Solubility in hydrochloric acid (0.1M, pH 0.6) ([7]; 0.1M HCl, pH 0.6): 189 μg mL^−1 | Solubility in ammonium formate (50 mM, pH 7.9) ([7]; ammonium formate 50 mM, pH 7.9): 39 μg mL^−1 | Solubility in water (pH 5.0) ([7]; singly distilled water, pH 5.0): 1830 μg mL^−1
SMILES: C=c1c(=O)[n-]c2n1Cc1c(ccc(Cl)c1Cl)N=2.[Na+] [3-Methyleneanagrelide Na salt]

IC50 [2, 13]: 0.044 µM | IC50 [2, 14]: 0.044 µM | AUC(0-t) ([5]; 1 mg/kg): 0.179 ± 0.014 µg·h/mL | Cmax ([5]; 1 mg/kg): 0.0601 ± 0.014 µg/mL | T1/2 ([5]; 1 mg/kg): 1.57 ± 24 h | IC50 [6, 16]: 0.0007 µM
SMILES: O=C1NC2=Nc3ccc(Cl)c(Cl)c3CN2C1O (stereo not shown) [3-hydroxy anagrelide, 3-hydroxyanagrelide]
Inhibition of megakaryocytopoiesis relative to parent drug (in words) [8]: no more potent than the parent drug | In vivo exposure relative to parent drug ([9]; after anagrelide treatment): 2-3 fold | Typical half-life ([9]; background, patients): 2.5 h | Potency as PDE III inhibitor relative to anagrelide ([10]; more potent than anagrelide): over 40 fold | In vivo ED20 for effects on dog heart rate [3]: 7.1 µg/kg | In vivo ED50 for effects on dog heart rate [3]: 11.72 ug/kg μg/kg | IC50 [6, 15]: 0.0007 µM

IC50 [2, 13]: 0.547 µM
SMILES: O=C1NC2=Nc3ccc(Cl)c(Cl)c3CN2C12CC2 [3-spirocyclo propyl anagrelide, 3,3,spiro-cyclopropyl-anagrelide]
IC50 [6, 15]: 0.797 µM
